These results are taken from article PMC8187626, “Clostridioides difficile specific DNA adenine methyltransferase CamA squeezes and flips adenine out of DNA helix” (Nature Communications, 2021).

Some results are limits rather than exact numbers.

Data set [1] concerns the target T1, CamA (Clostridioides difficile, UniProt Q183J3).
T1 construct: gene CD630_27580; full length, 577 residues; N-terminal His-SUMO tag cut by ULP protease leaving His-Met; E. coli Rosetta, plasmid pXC2184; active as monomer
The data set is described as follows: isothermal titration calorimetry, one-site fit. The data set is classed as binding.

In data set [2] the target is T1, CamA. The data set is described as follows: MTase-Glo luminescence assay of SAH formation. The settings on record: 20 µM dsDNA substrate (CAAAAA site), 50 nM CamA, 100 mM NaCl, 20 mM Tris-HCl pH 7.5, ~22 °C, 2.5 min. The data set is classed as biochemical.
The target in data set [3] is T2, CamA SeMet (Clostridioides difficile 630, UniProt Q183J3 1-577).
T2 sequence: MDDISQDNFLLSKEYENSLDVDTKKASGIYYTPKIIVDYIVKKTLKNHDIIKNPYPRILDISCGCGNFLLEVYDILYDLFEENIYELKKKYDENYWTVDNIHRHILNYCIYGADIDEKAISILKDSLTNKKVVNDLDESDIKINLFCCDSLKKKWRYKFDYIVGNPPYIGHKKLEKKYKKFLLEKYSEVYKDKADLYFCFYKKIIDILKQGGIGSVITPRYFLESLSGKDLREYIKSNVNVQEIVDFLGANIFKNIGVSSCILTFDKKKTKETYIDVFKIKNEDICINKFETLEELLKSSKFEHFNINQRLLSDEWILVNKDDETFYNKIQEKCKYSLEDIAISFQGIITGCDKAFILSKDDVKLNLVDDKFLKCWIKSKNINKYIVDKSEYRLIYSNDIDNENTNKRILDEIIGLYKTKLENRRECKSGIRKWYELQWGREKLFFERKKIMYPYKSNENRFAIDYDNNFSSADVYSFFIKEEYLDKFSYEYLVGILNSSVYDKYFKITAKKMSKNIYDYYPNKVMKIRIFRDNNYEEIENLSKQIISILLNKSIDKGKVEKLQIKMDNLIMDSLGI
The data set is described as follows: X-ray crystallography; no cofactor; ITC at 25 C: 200 uM DNA into 18-20 uM CamA, 20 mM HEPES pH 8.0, 0.5 mM TCEP, 5% glycerol, 150 or 250 mM NaCl (cofactor comparison at 250 mM NaCl). The settings on record: protein: recombinant; tags: His-SUMO cleaved, leaves N-terminal His-Met; 5' overhang 1 nt at each end (T / A).

In data set [4] the target is T3, CamA (Clostridioides difficile 630, UniProt Q183J3 1-577).
T3 sequence: T2 sequence
The data set is described as follows: X-ray crystallography; no cofactor bound (SAH dissociated); 2.68 A; ITC at 25 C: 200 uM DNA into 18-20 uM CamA, 20 mM HEPES pH 8.0, 0.5 mM TCEP, 5% glycerol, 150 or 250 mM NaCl (cofactor comparison at 250 mM NaCl). The settings on record: protein: recombinant; tags: His-SUMO cleaved, leaves N-terminal His-Met; 5' overhang 1 nt at each end (T / A).

As usually defined, the Kd is the constant that tells how readily two partners part at equilibrium. As a reminder, the Km is the concentration of substrate that gives half-maximal velocity.

Molecule `Nc1ncnc2c1ncn2[C@@H]1O[C@H](C[C@@H](N)CC[C@H](N)C(=O)O)[C@@H](O)[C@H]1O` [sinefungin] yielded a Kd in data set [1] of 19 µM.

With `C[S+](CC[C@H](N)C(=O)O)C[C@H]1O[C@@H](n2cnc3c(N)ncnc32)[C@H](O)[C@@H]1O` (stereo partly drawn) [SAM], the dissociation constant (Kd) in data set [1] was in the range of 23 to 35 µM. Moreover, in data set [2], the Km is over 17 µM.

As for `Nc1ncnc2c1ncn2[C@@H]1O[C@H](CSCC[C@H](N)C(=O)O)[C@@H](O)[C@H]1O` [SAH], the Kd in data set [1] worked out at 8 µM.

B1: co-crystal DNA 13 bp + overhangs (dsDNA)
DNA 1: TTCAAAAAGTCCCA
DNA 2: ATGGGACTTTTTGA
Consider B1, for which the binding result in data set [3] and in data set [4] was “binds” throughout.
